Test results as given in patent US8431593B2, “Heteroaryl amide derivatives” (H. Lundbeck A/S, priority 2006, dated 2013).

target: T1, P2X7 receptor (Homo sapiens, UniProt Q99572); assay: P2X7 calcium mobilization assay, high throughput, antagonist activity (Example 4A); assay type: cell-based; conditions: fluorescence response of cells exposed to 80 μM 2′(3′)-O-(4-benzoyl-benzoyl)adenosine 5′-triphosphate; Example 4A; read-out: IC50
T1 construct: host or cells: SH-SY5Y
T1 sequence (Q99572 1-595): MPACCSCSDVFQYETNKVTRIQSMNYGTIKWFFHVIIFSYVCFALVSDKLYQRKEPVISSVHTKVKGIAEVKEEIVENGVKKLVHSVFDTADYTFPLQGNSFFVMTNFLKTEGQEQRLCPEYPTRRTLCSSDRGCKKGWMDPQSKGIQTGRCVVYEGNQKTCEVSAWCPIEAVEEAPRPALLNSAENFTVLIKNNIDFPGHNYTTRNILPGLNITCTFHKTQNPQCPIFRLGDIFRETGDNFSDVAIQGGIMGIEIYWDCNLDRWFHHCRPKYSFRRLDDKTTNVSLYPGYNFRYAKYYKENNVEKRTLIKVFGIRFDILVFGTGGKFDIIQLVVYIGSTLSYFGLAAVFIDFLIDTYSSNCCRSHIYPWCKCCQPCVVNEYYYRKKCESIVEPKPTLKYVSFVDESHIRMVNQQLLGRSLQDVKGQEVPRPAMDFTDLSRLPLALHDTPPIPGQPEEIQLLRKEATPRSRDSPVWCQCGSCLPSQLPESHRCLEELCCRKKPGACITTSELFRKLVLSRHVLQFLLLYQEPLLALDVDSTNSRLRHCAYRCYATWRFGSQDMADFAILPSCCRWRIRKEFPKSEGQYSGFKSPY
In short: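 Cells plated 100,000/well the day before; after 1 h dye loading and one rinse, cells were preincubated 1 h at room temperature with test compound. Calcium mobilization then read on FLIPR^TETRA; maximum RFU corrected by subtracting mean no-agonist response and referenced to mean agonist-control maximum.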

IC50, < 2000 nM:
CC1(C)[C@H]2CC[C@@H](CNC(=O)c3cccc4nc(C(=O)N5CC[C@H](N)C5)cn34)[C@@H]1C2 [Compound 330, 2-{[(3S)-3-aminopyrrolidin-1-yl]carbonyl}-N-{[(1S,2R,5S)-6.6-dimethylbicyclo{3.1.1]hept-2-yl]methyl}imidazo[1,2-a]pyridine-5-carboxamide]
CC1(C)[C@H]2CC[C@@H](CNC(=O)c3cccc4nc(C(=O)NC5CCNC5)cn34)[C@@H]1C2 (stereo partly drawn) [Compound 333, 5-N-{[(1S,2R,5S)-6,6-dimethylbicyclo[3.1.1]hept-2-yl]methyl}-2-N-pyrrolidin-3-ylimidazo[1,2-a]pyridine-2,5-dicarboxamide]
CC1(C)[C@H]2CC[C@@H](CNC(=O)c3cccc4nc(C(=O)N5C6CCC5CC(N)C6)cn34)[C@@H]1C2 (stereo partly drawn) [Compound 335, 2-[(3-amino-8-azabicyclo[3.2.1]oct-8-yl)carbonyl]-N-{[(1S,2R,5S)-6,6-dimethylbicyclo[3.1.1]hept-2-yl]methyl}imidazo[1,2-a]pyridine-5-carboxamide]
CC1(C)[C@H]2CC[C@@H](CNC(=O)c3cccc4nc(C(=O)N5CCOC(CN)C5)cn34)[C@@H]1C2 (stereo partly drawn) [Compound 336, 2-{[2-(aminomethyl)morpholin-4-yl]carbonyl}-N-{[(1S,2R,5S)-6,6-dimethylbicyclo[3.1.1]hept-2-yl]methyl}imidazo[1,2-a]pyridine-5-carboxamide]
CCOC(=O)C(C)c1cn2c(C(=O)NCC34CC5CC(CC(C5)C3)C4)cccc2n1 (stereo not drawn) [Compound 338, ethyl 2-{5-[(adamantan-1-ylmethyl)carbamoyl]imidazo[1,2-a]pyridin-2-yl}propanoate]
Cc1cc(-c2cn3c(C(=O)NCC45CC6CC(CC(C6)C4)C5)cccc3n2)n(CCO)n1 [Compound 339, N-(adamantan-1-ylmethyl)-2-[1-(2-hydroxyethyl)-3-methyl-1H-pyrazol-5-yl]imidazo[1,2-a]pyridine-5-carboxamide]
Cc1cc(-c2cn3c(C(=O)NCC45CC6CC(CC(C6)C4)C5)cccc3n2)nn1CCO [Compound 340, N-(adamantan-1-ylmethyl)-2-[1-(2-hydroxyethyl)-5-methyl-1H-pyrazol-3-yl]imidazo[1,2-a]pyridine-5-carboxamide]
CCOC(=O)CN(C)Cc1cn2c(C(=O)NCC34CC5CC(CC(C5)C3)C4)cccc2n1 [Compound 341, ethyl N-({5-[(adamantan-1-ylmethyl)carbamoyl]imidazo[1,2-a]pyridin-2-yl}methyl)-N-methylglycinate]
O=C(O)CCSCc1cn2c(C(=O)NCC34CC5CC(CC(C5)C3)C4)cccc2n1 [Compound 342, 3-[({5-[(adamantan-1-ylmethyl)carbamoyl]imidazo[1,2-a]pyridin-2-yl}methyl)thio] propanoic acid]
O=C(NCCC1CC2CCC1C2)c1cccc2nc(CN3CCOCC3)cn12 (stereo not drawn) [Compound 344, N-(2-bicyclo[2.2.1]hept-2-ylethyl)-2-(morpholin-4-ylmethyl)imidazo[1,2-a]pyridine-5-carboxamide]
O=C(O)c1cccc(-c2cn3c(C(=O)NCC45CC6CC(CC(C6)C4)C5)cccc3n2)c1 [Compound 345, 3-{5-[(adamantan-1-ylmethyl)carbamoyl]imidazo[1,2-a]pyridin-2-yl} benzoic acid]
O=C(O)CCS(=O)(=O)Cc1cn2c(C(=O)NCC34CC5CC(CC(C5)C3)C4)cccc2n1 [Compound 346, 3-[({5-[(adamantan-1-ylmethyl)carbamoyl]imidazo[1,2-a]pyridin-2-yl}methyl)sulfonyl] propanoic acid]
Cc1cc(-c2cn3c(C(=O)NCC45CC6CC(CC(C6)C4)C5)cccc3n2)n(CC(=O)O)n1 [Compound 347, (5-{5-[(adamantan-1-ylmethyl)carbamoyl]imidazo[1,2-a]pyridin-2-yl}-3-methyl-1H-pyrazol-1-yl)acetic acid]
CN(CC(=O)O)Cc1cn2c(C(=O)NCC34CC5CC(CC(C5)C3)C4)cccc2n1 [Compound 348, N-({5-[(adamantan-1-ylmethyl)carbamoyl]imidazo[1,2-a]pyridin-2-yl}methyl)-N-methylglycine]
O=C(O)c1ccc(=O)n(Cc2cn3c(C(=O)NCC45CC6CC(CC(C6)C4)C5)cccc3n2)c1 [Compound 350, 1-({5-[(adamantan-1-ylmethyl)carbamoyl]imidazo[1,2-a]pyridin-2-yl}methyl)-6-oxo-1,6-dihydropyridine-3-carboxylic acid]
O=C(O)c1cccn(Cc2cn3c(C(=O)NCC45CC6CC(CC(C6)C4)C5)cccc3n2)c1=O [Compound 351, 1-({5-[(adamantan-1-ylmethyl)carbamoyl]imidazo[1,2-a]pyridin-2-yl}methyl)-2-oxo-1,2-dihydropyridine-3-carboxylic acid]
O=C(NCC12CC3CC(CC(C3)C1)C2)c1cccc2nc(CN3CCSCC3)cn12 [Compound 352, N-(adamantan-1-ylmethyl)-2-(thiomorpholin-4-ylmethyl)imidazo[1,2-a]pyridine-5-carboxamide]
CC(=O)CCc1cn2c(C(=O)NCC34CC5CC(CC(C5)C3)C4)cccc2n1 [Compound 353, N-(adamantan-1-ylmethyl)-2-(3-oxobutyl)imidazo[l ,2-a]pyridine-5-carboxamide]
C/C(CCc1cn2c(C(=O)NCC34CC5CC(CC(C5)C3)C4)cccc2n1)=N\O [Compound 354, N-(adamantan-1-ylmethyl)-2-[(3E)-3-(hydroxyimino)butyl] imidazo[1,2-a]pyridine-5-carboxamide]
O=C(O)c1ccn(Cc2cn3c(C(=O)NCC45CC6CC(CC(C6)C4)C5)cccc3n2)c(=O)c1 [Compound 355, 1-({5-[(adamantan-1-ylmethyl)carbamoyl]imidazo[1,2-a]pyridin-2-yl}methyl)-2-oxo-1,2-dihydropyridine-4-carboxylic acid]
CCOC(=O)N1CCN(C(=O)c2cn3c(NC(=O)CC45CC6CC(CC(C6)C4)C5)cccc3n2)CC1 [Compound 356, ethyl 4-({5-[(adamantan-1-ylacetyl)amino]imidazo [1,2-a]pyridin-2-yl}carbonyl) piperazine-1-carboxylate]
O=C(CC12CC3CC(CC(C3)C1)C2)Nc1cccc2nc(C(=O)N3CCCCC3)cn12 [Compound 357, 2-adamantan-1-yl-N-[2-(piperidin-1-ylcarbonyl)imidazo [1,2-a]pyridin-5-yl]acetamide]
O=C(CC12CC3CC(CC(C3)C1)C2)Nc1cccc2nc(C(=O)N3CCCC3)cn12 [Compound 358, 2-adamantan-1-yl-N-[2-(pyrrolidin-1-ylcarbonyl)imidazo [1,2-a]pyridin-5-yl]acetamide]
CCCCN(C)C(=O)c1cn2c(NC(=O)CC34CC5CC(CC(C5)C3)C4)cccc2n1 [Compound 360, 5-[(adamantan-1-ylacetyl)amino]-N-butyl-N-methylimidazo[1,2-a]pyridine-2-carboxamide]
CCCN(C)C(=O)c1cn2c(NC(=O)CC34CC5CC(CC(C5)C3)C4)cccc2n1 [Compound 361, 5-[(adamantan-1-ylacetyl)amino]-N-methyl-N-propylimidazo[1,2-a]pyridine-2-carboxamide]
O=C(CC12CC3CC(CC(C3)C1)C2)Nc1cccc2nc(C(=O)N3CCSCC3)cn12 [Compound 362, 2-adamantan-1-yl-N-[2-(thiomorpholin-4-ylcarbonyl)imidazo[1,2-a]pyridin-5-yl]acetamide]
CC1CCN(C(=O)c2cn3c(NC(=O)CC45CC6CC(CC(C6)C4)C5)cccc3n2)CC1 [Compound 363, 2-adamantan-1-yl-N-{2-[(4-methylpiperidin-1-yl)carbonyl]imidazo[1,2-a]pyridin-5-yl}acetamide]
O=C(CC12CC3CC(CC(C3)C1)C2)Nc1cccc2nc(C(=O)N3CCOCC3)cn12 [Compound 364, 2-adamantan-1-yl-N-[2-(morpholin-4-ylcarbonyl)imidazo[1,2-a]pyridin-5-yl]acetamide]
CCN(CC)C(=O)c1cn2c(NC(=O)CC34CC5CC(CC(C5)C3)C4)cccc2n1 [Compound 365, 5-[(adamantan-1-ylacetyl)amino]-N,N-diethylimidazo[1,2-a]pyridine-2-carboxamide]
COCCN(C)C(=O)c1cn2c(NC(=O)CC34CC5CC(CC(C5)C3)C4)cccc2n1 [Compound 366, 5-[(adamantan-1-ylacetyl)amino]-N-(2-methoxyethyl)-N-methylimidazo[1,2-a]pyridine-2-carboxamide]
